Reference: patent US9107918B2, “Method for determining sensitivity to irinotecan and use thereof” (Kabushiki Kaisha Yakult Honsha, priority 2009, dated 2015)
Counter-ions that a name gives are not always drawn.

Assays:
Type in all cases: cell-based, human
[1] = tested on: colon cancer cell line COLO201; assay: MTT growth inhibition, COLO201; conditions: COLO201 cells, 72 hours drug exposure
Method: (§1) The sensitivity, to irinotecan and SN-38, of the 19 cultured human tumor cell lines which had been subjected to comprehensive gene expression analysis was determined through the MTT (methylthiazol tetrazolium bromide) method. Specifically, 4×10^3 cells/well of each cell line and 80 μL/well of culture medium (10% fetal serum-added RPMI1640 medium) were added to each well of a 96-well microplate (Nunclon; Nunc, Roskilde, Denmark), and culturing was performed for 24 hours in an incubator at 37° C. under 5% CO2. Thereafter, the culture medium (10% fetal serum-added RPMI1640 medium) was renewed, and SN-38 or irinotecan was added thereto at various concentrations. Culturing was further performed for 72 hours in an incubator at 37° C. under 5% CO2. […] By means of a microplate reader (Maxline Microplate Reader, Molecular Devices, Sunnyvale, Calif.), absorbance at 570 to 650 nm was measured. An average absorbance of wells of culture medium was subtracted from the absorbance of each well of the drug-treatment group, and the obtained values of the wells were averaged. Similarly, the average absorbance of wells of culture medium was subtracted from the absorbance of each well of the control group (non-drug-treatment group), and the obtained values of the wells were averaged. […]

[2] = tested on: myelogenous leukemia cell line K562; assay: MTT growth inhibition, K562; conditions: K562 cells, 72 hours drug exposure
Method: as §1

[3] = tested on: acquired multidrug resistant cell line K562/DOX; assay: MTT growth inhibition, K562/DOX; conditions: K562/DOX cells, 72 hours drug exposure
Method: as §1

[4] = tested on: acquired CDDP resistant cell line PC-14/CDDP; assay: MTT growth inhibition, PC-14/CDDP; conditions: PC-14/CDDP cells, 72 hours drug exposure
Method: as §1

[5] = tested on: lung adenocarcinoma cell line A549; assay: MTT growth inhibition, A549; conditions: A549 cells, 72 hours drug exposure
Method: as §1

[6] = tested on: lung adenocarcinoma cell line PC-14; assay: MTT growth inhibition, PC-14; conditions: PC-14 cells, 72 hours drug exposure
Method: as §1

[7] = tested on: acquired SN-38 resistant cell line PC-6/SN2-5; assay: MTT growth inhibition, PC-6/SN2-5; conditions: PC-6/SN2-5 cells, 72 hours drug exposure
Method: as §1

[8] = tested on: colon cancer cell line COLO320DM; assay: MTT growth inhibition, COLO320DM; conditions: COLO320DM cells, 72 hours drug exposure
Method: as §1

[9] = tested on: esophageal cancer cell line HEC-46; assay: MTT growth inhibition, HEC-46; conditions: HEC-46 cells, 72 hours drug exposure
Method: as §1

[10] = tested on: colon cancer cell line HCC-48; assay: MTT growth inhibition, HCC-48; conditions: HCC-48 cells, 72 hours drug exposure
Method: as §1

[11] = tested on: acquired CPT-11 resistant cell line PC-6/DQ2-2; assay: MTT growth inhibition, PC-6/DQ2-2; conditions: PC-6/DQ2-2 cells, 72 hours drug exposure
Method: as §1

[12] = tested on: acquired CDDP (cisplatin) resistant cell line PC-9/CDDP; assay: MTT growth inhibition, PC-9/CDDP; conditions: PC-9/CDDP cells, 72 hours drug exposure
Method: as §1

[13] = tested on: lung adenocarcinoma cell line PC-9; assay: MTT growth inhibition, PC-9; conditions: PC-9 cells, 72 hours drug exposure
Method: as §1

[14] = tested on: gastric cancer cell line MKN45; assay: MTT growth inhibition, MKN45; conditions: MKN45 cells, 72 hours drug exposure
Method: as §1

[15] = tested on: colon cancer cell line HCC-50; assay: MTT growth inhibition, HCC-50; conditions: HCC-50 cells, 72 hours drug exposure
Method: as §1

[16] = tested on: oral epithelium epidermal cancer cell line KB; assay: MTT growth inhibition, KB; conditions: KB cells, 72 hours drug exposure
Method: as §1

[17] = tested on: small-cell lung cancer cell line PC-6; assay: MTT growth inhibition, PC-6; conditions: PC-6 cells, 72 hours drug exposure
Method: as §1

[18] = tested on: gastric cancer cell line HSC-42; assay: MTT growth inhibition, HSC-42; conditions: HSC-42 cells, 72 hours drug exposure
Method: as §1

[19] = tested on: squamous cell lung cancer cell line LC-S; assay: MTT growth inhibition, LC-S; conditions: LC-S cells, 72 hours drug exposure
Method: as §1

[20] = Homo sapiens, read-out: 50% Growth inhibitory concentration (IC50) determined by MTT method

CCc1c2c(nc3ccc(OC(=O)N4CCC(N5CCCCC5)CC4)cc13)-c1cc3c(c(=O)n1C2)COC(=O)[C@]3(O)CC [Irinotecan, Irinotecan hydrochloride]
IC50 ([1]; Homo sapiens, COLO 201, read-out: 50% Growth inhibitory concentration (IC50) determined by MTT method): 0.979 µg/mL
IC50 [2, 20]: 2.3 µg/mL
IC50 [3, 20]: 3.93 µg/mL
IC50 [4, 20]: 4.03 µg/mL
IC50 [5, 20]: 5.63 µg/mL
IC50 [6, 20]: 4.67 µg/mL
IC50 [7, 20]: 2.85 µg/mL
IC50 ([8]; Homo sapiens, COLO 320DM, read-out: 50% Growth inhibitory concentration (IC50) determined by MTT method): 1.78 µg/mL
IC50 [9, 20]: 7.79 µg/mL
IC50 [10, 20]: 1.11 µg/mL
IC50 [11, 20]: 4.26 µg/mL
IC50 [12, 20]: 2.68 µg/mL
IC50 [13, 20]: 2.75 µg/mL
IC50 ([14]; Homo sapiens, MKN-45, read-out: 50% Growth inhibitory concentration (IC50) determined by MTT method): 0.809 µg/mL
IC50 [15, 20]: 5.11 µg/mL
IC50 [16, 20]: 2.23 µg/mL
IC50 [17, 20]: 0.691 µg/mL
IC50 [18, 20]: 0.743 µg/mL
IC50 [19, 20]: 18.9 µg/mL

CCc1c2c(nc3ccc(O)cc13)-c1cc3c(c(=O)n1C2)COC(=O)[C@]3(O)CC [SN-38, 7-ethyl-10-hydroxycamptothecin]
50% Growth inhibitory concentration (IC50) determined by MTT method [1]: 0.00284 µg/mL
50% Growth inhibitory concentration (IC50) determined by MTT method [2]: 0.00284 µg/mL
50% Growth inhibitory concentration (IC50) determined by MTT method [3]: 0.0041 µg/mL
50% Growth inhibitory concentration (IC50) determined by MTT method [4]: 0.00626 µg/mL
50% Growth inhibitory concentration (IC50) determined by MTT method [5]: 0.02523 µg/mL
50% Growth inhibitory concentration (IC50) determined by MTT method [6]: 0.01116 µg/mL
50% Growth inhibitory concentration (IC50) determined by MTT method [7]: 0.0244 µg/mL
50% Growth inhibitory concentration (IC50) determined by MTT method [8]: 0.00343 µg/mL
50% Growth inhibitory concentration (IC50) determined by MTT method [9]: 0.03482 µg/mL
50% Growth inhibitory concentration (IC50) determined by MTT method [10]: 0.00199 µg/mL
50% Growth inhibitory concentration (IC50) determined by MTT method [11]: 0.09735 µg/mL
50% Growth inhibitory concentration (IC50) determined by MTT method [12]: 0.00905 µg/mL
50% Growth inhibitory concentration (IC50) determined by MTT method [13]: 0.00817 µg/mL
50% Growth inhibitory concentration (IC50) determined by MTT method [14]: 0.0026 µg/mL
50% Growth inhibitory concentration (IC50) determined by MTT method [15]: 0.02227 µg/mL
50% Growth inhibitory concentration (IC50) determined by MTT method [16]: 0.00526 µg/mL
50% Growth inhibitory concentration (IC50) determined by MTT method [17]: 0.00291 µg/mL
50% Growth inhibitory concentration (IC50) determined by MTT method [18]: 0.00281 µg/mL
50% Growth inhibitory concentration (IC50) determined by MTT method [19]: 0.13707 µg/mL
